In one test the test system is eosinophil. Description: Eosinophilia-Inhibitory Activity (Sephadex G-200 induced, bronchovesicular washing). In kind it is in vivo. Particulars: Rattus norvegicus, ip, 168 h, rats, 30 mg/kg intraperitoneally 10 minutes prior to each Sephadex administration (day 0, 2, 5), eosinophils at 7th day. The protocol:
Rats weighing 250°-350 g were used (5 per group). The test method was a partial modification of the method reported by B. A. Spicer et al (Br. J. Pharmacol (1990), 101, 821). Sephadex G-200 having a particle size of 40°-120 micron was suspended in isotonic saline at 0.5 mg/ml and boiled for 5 hours on the administration day to allow swelling. The suspension was administered to the rats from the tail vein by 1 ml at day 0, day 2 and day 5. At the 7th day from the initiation of the administration, the rats were anesthetized with 25% urethane (5 ml/kg) and fixed at a dorsal position. A cut down tube was inserted into trachea and applied with a three-way cock at its end. A 5 ml plastic syringe was set on one end of the three-way cock, a 5 ml plastic syringe containing 6 units/ml heparin-PBS (37° C.) was set on the other end and the liquid was injected. Using the empty 5 ml plastic syringe, the liquid was inserted or sucked out three times. This set of operations were repeated three times and the liquid obtained was preserved on ice as a bronchovesicular washing (ca 12 ml). The obtained washing was centrifuged [1000 rpm (150 g)×5 min, 4° C.] and the supernatant thereof was removed by decantation. The residue was re-suspended in 500 μl of RPMI-1640 medium. The total leukocytes in the suspension was counted by Colter counter (Sysmex, MICROCELLCOUNTER CC-120). Hinkelmann's Solution (900 μl), which is an eosinophil count reagent, was added to 100 μl of the re-suspension for staining (1:9), and the proportion of eosinophil count relative to the leukocyte count in one microscopic field was determined using an optical microscope (NIKON, BIOPHOT Type 104). The drug (test compound) was intraperitoneally administered in a dose of 30 mg/kg 10 minutes prior to the respective administration of Sephadex. The control group was administered with an isotonic saline containing 1% Tween 80 and 1% dimethyl sulfoxide instead of the drug.
Eosinophilia-inhibitory activity was calculated from the following formula.

A further test relates to T lymphocytes. Description: Inhibitory action on T lymphocyte activation stimulated by concanavalin A ([3H]thymidine uptake). The test is classed as cell-based. Particulars: mouse thymus T lymphocytes, 3 μg/ml concanavalin A, test drug 10 μM, read-out: growth-inhibitory activity, minus percentage figures relative to the control group (thymidine uptake). Here is the method: Inhibitory action on T lymphocyte activation stimulated by concanavalin A
The test was performed according to the method of Mishell, B. B. et al ["Cell Proliferation" in Selected Methods in Cellular Immunology, V, XXiX, W. H. Freeman Co., San Francisco, Calif. pp. 153-160, 1980].
T lymphocytes were isolated from mouse thymus by a conventional method and suspended in DMEM. The cells (5×10^6 cells/ml) were incubated at 37° C. for 12 hours in the presence of 3 μg/ml of concanavalin A. The test drug was added at 10 μM under these incubation conditions. After 12 hours of incubation, 2 μCi [3H]thymidine was added to each well and the well was incubated for 48 hours. After the incubation, the thymidine uptake was determined by a scintillation counter. The growth-inhibitory activity is shown in minus percentage figures relative to the figure of the control group.

Broadly, the inhibition in vivo is how much of the control response was suppressed. Low readings indicate little suppression, high ones strong suppression.

Each structure is given as a SMILES string.

`CNC(=S)n1ncnc1N` [Compound A, 5-amino-1-[methylamino(thiocarbonyl)]-1H-1,2,4-triazole] showed an inhibition in vivo at 30 mg/kg with eosinophil of 88%.

`CNC(=S)n1nc(N)nc1N` [Compound B, 3,5-diamino-1-[methylamino(thiocarbonyl)]-1H-1,2,4-triazole] had an inhibition in vivo at 30 mg/kg with eosinophil of 53%. Same read-out and setting: in the case of `CNC(=S)n1nc(-c2ccc(C#N)cc2)nc1N` [Compound C, 5-amino-3-(4-cyanophenyl)-1-[methylamino(thiocarbonyl)]-1H-1,2,4-triazole] it was 87%. Consider `CNC(=S)n1nc(-c2ccc(Cl)cc2)nc1N` [Compound D, 5-amino-3-(4-chlorophenyl)-1-[methylamino(thiocarbonyl)]-1H-1,2,4-triazole], for which the inhibition in vivo at 30 mg/kg with eosinophil is 87%. Besides, the inhibition at 10 µM in the test with T lymphocytes is -52%. Take `CNC(=S)n1nc(-c2ccc(OC)cc2)nc1N` [Compound E, 5-amino-3-(4-methoxyphenyl)-1-[methylamino(thiocarbonyl)]-1H-1,2,4-triazole]: in the test with eosinophil, 30 mg/kg produced 70% inhibition in vivo. On the same count and under the same terms, to `Cn1cnc2ncnn2c1=S` [Compound F, 6-methyl-1,2,4-triazolo[1,5-a]-1,3,5-triazine-7(6H)-thione] belongs 58%; to `Cn1cnc2nc(-c3ccc(C#N)cc3)nn2c1=S` [Compound G, 2-(4-cyanophenyl)-6-methyl-1,2,4-triazolo[1,5-a]-1,3,5-triazine-7(6H)-thione], 79%. Take `Cn1cnc2nc(-c3ccc(Cl)cc3)nn2c1=S` [Compound H, 2-(4-chlorophenyl)-6-methyl-1,2,4-triazolo[1,5-a]-1,3,5-triazine-7(6H)-thione]: in the test on eosinophil, testing at 30 mg/kg gave an inhibition in vivo of 83%. For the same molecule, the inhibition at 10 µM in the test on T lymphocytes is -60%. In the test on eosinophil, `CNC(=S)n1nc(-c2cccc(Cl)c2)nc1N` [Compound I, 5-amino-3-(3-chlorophenyl)-1-[methylamino(thiocarbonyl)]-1H-1,2,4-triazole] gave an inhibition in vivo at 30 mg/kg of 70%. Molecule `CNC(=S)n1nc(-c2ccc(F)cc2)nc1N` [Compound J, 5-amino-3-(4-fluorophenyl)-1-[methylamino(thiocarbonyl)]-1H-1,2,4-triazole] returned an inhibition in vivo at 30 mg/kg in the test on eosinophil of 80%. In turn, `CNC(=S)n1nc(-c2ccc(Br)cc2)nc1N` [Compound K, 5-amino-3-(4-bromophenyl)-1-[methylamino(thiocarbonyl)]-1H-1,2,4-triazole] registered an inhibition in vivo at 30 mg/kg in the test on eosinophil of 90%. In the test with T lymphocytes, the inhibition at 10 µM is -35%. On to `CNC(=S)n1nc(-c2ccc(C(F)(F)F)cc2)nc1N` [Compound L, 5-amino-1-[methylamino(thiocarbonyl)]-3-(4-trifluoromethylphenyl)-1H-1,2,4-triazole], for which, in the test with eosinophil, the inhibition in vivo at 30 mg/kg was determined as 88%. Also, in the test with T lymphocytes, the inhibition at 10 µM was -37%. In the test on eosinophil, `CNC(=S)n1nc(-c2ccc(-c3ccccc3)cc2)nc1N` [Compound M, 5-amino-3-(4-phenylphenyl)-1-[methylamino(thiocarbonyl)]-1H-1,2,4-triazole] displayed an inhibition in vivo at 30 mg/kg of 85%.

Molecule `CNC(=S)n1nc(-c2ccc(Cl)cc2Cl)nc1N` [Compound N, 5-amino-3-(2,4-dichlorophenyl)-1-[methylamino(thiocarbonyl)]-1H-1,2,4-triazole] showed an inhibition in vivo at 30 mg/kg in the test with eosinophil of 90%.

In the test with eosinophil, `CNC(=S)n1nc(-c2ccc(Cl)c(Cl)c2)nc1N` [Compound O, 5-amino-3-(3,4-dichlorophenyl)-1-[methylamino(thiocarbonyl)]-1H-1,2,4-triazole] had an inhibition in vivo at 30 mg/kg of 88%. Same read-out and setting: in the case of `CNC(=S)n1nc(-c2ccc(Cl)cc2OC)nc1N` [Compound P, 5-amino-3-(4-chloro-2-methoxyphenyl)-1-[methylamino(thiocarbonyl)]-1H-1,2,4-triazole] it was 85%.

`Cn1cnc2nc(-c3ccc(F)cc3)nn2c1=S` [Compound Q, 2-(4-fluorophenyl)-6-methyl-1,2,4-triazolo[1,5-a]-1,3,5-triazine-7(6H)-thione] yielded an inhibition in vivo at 30 mg/kg in the test on eosinophil of 82%. For `Cn1cnc2nc(-c3ccc(Br)cc3)nn2c1=S` [Compound R, 2-(4-bromophenyl)-6-methyl-1,2,4-triazolo[1,5-a]-1,3,5-triazine-7(6H)-thione], the inhibition in vivo at 30 mg/kg in the test on eosinophil was found to be 88%. Moreover, in the test on T lymphocytes, the inhibition at 10 µM is -58%. Molecule `Cn1cnc2nc(-c3ccc(C(F)(F)F)cc3)nn2c1=S` [Compound S, 6-methyl-2-(4-trifluoromethylphenyl)-1,2,4-triazolo[1,5-a]-1,3,5-triazine-7(6H)-thione] yielded an inhibition in vivo at 30 mg/kg in the test with eosinophil of 89%. Further, the inhibition at 10 µM with T lymphocytes was -36%. The molecule `Cn1cnc2nc(-c3ccc(-c4ccccc4)cc3)nn2c1=S` [Compound T, 6-methyl-2-(4-phenylphenyl)-1,2,4-triazolo[1,5-a]-1,3,5-triazine-7(6H)-thione] registered an inhibition in vivo at 30 mg/kg in the test on eosinophil of 80%. `Cn1cnc2nc(-c3ccc(Cl)cc3Cl)nn2c1=S` [Compound U, 2-(2,4-dichlorophenyl)-6-methyl-1,2,4-triazolo[1,5-a]-1,3,5-triazine-7(6H)-thione] displayed an inhibition in vivo at 30 mg/kg in the test with eosinophil of 85%. Further, in the test on T lymphocytes, the inhibition at 10 µM was -22%. The like results for `Cn1cnc2nc(-c3ccc(Cl)c(Cl)c3)nn2c1=S` [Compound V, 2-(3,4-dichlorophenyl)-6-methyl-1,2,4-triazolo[1,5-a]-1,3,5-triazine-7(6H)-thione] were, in that order, 87% and -40%.
